Experimental data as given in patent publication US4616087A, “2,5-bis alkyl sulfonyl and 2,5-bis alkyl thio substituted-pyridines” (The Dow Chemical Company, priority 1982, dated 1986).

tested on: rhinovirus type 1A (RV-1A), rhinovirus type 2 (RV-2) or Coxsackie A21 virus (Cox A21); experiment: Tissue Culture testing, antiviral activity (virus not specified); type: cell-based; conditions: HeLa cells; qualitative
Procedure: Monolayered HeLa cells in 16 millimeter (mm) tissue culture dishes were treated with 1 ml of culture medium (Eagles medium supplemented with fetal calf serum) containing subject compound at an appropriate concentration or containing no compound at all. Culture media such as those described herein are more fully described in standard texts, as for example, Kuchler's Biochemical Methods in Cell Culture and Virology, Dowden, Hutchinson and Ross, Inc., Stroudsberg, PA (1977). Following treatment, cells were challenged with 0.05 ml of rhinovirus type 1A (RV-1A), rhinovirus type 2 (RV-2) or Coxsackie A21 virus (Cox A21) in culture medium. Some of the compounds were also tested against rhinovirus type 5 (RV-5), rhinovirus type 8 (RV-8) or rhinovirus type 64 (RV-64). Cell controls received no viruses.

SMILES	antiviral activity in the Tissue Culture testing
CC(=O)c1ccc(Oc2ccc(S(=O)(=O)C(C)C)cn2)cc1 [1-(4-((5-((1-methylethyl)sulfonyl)-2-pyridinyl)oxy)phenyl)ethanone]	exhibiting antiviral activity
CC(=O)c1ccc(Oc2ccc(S(C)(=O)=O)cn2)cc1 [1-(4-((5-(methylsulfonyl)-2-pyridinyl)oxy)phenyl)ethanone]	exhibiting antiviral activity
CCS(=O)(=O)c1cccnc1Oc1ccc(Cl)c(Cl)c1 [2-(3,4-dichlorophenoxy)-3-(ethylsulfonyl)pyridine]	exhibiting antiviral activity
O=S(=O)(Cc1ccccc1)c1ccc(Oc2ccc(Cl)c(Cl)c2)nc1 [2-(3,4-dichlorophenoxy)-5-((phenylmethyl)sulfonyl)pyridine]	exhibiting antiviral activity
O=S(=O)(c1ccc(Oc2ccc(Cl)c(Cl)c2)nc1)C1CCCCC1 [2-(3,4-dichlorophenoxy)-5-(cyclohexylsulfonyl)pyridine]	exhibiting antiviral activity
CCS(=O)(=O)c1ccc(Oc2ccc(Cl)c(Cl)c2)nc1 [2-(3,4-dichlorophenoxy)-5-(ethylsulfonyl)pyridine]	exhibiting antiviral activity
CS(=O)(=O)c1ccc(Oc2ccc(Cl)c(Cl)c2)nc1 [2-(3,4-dichlorophenoxy)-5-(methylsulfonyl)pyridine]	exhibiting antiviral activity
CCCCCCS(=O)(=O)c1ccc(Oc2ccc(Cl)c(Cl)c2)nc1 [2-(3,4-dichlorophenoxy)-5-(n-hexylsulfonyl)pyridine]	exhibiting antiviral activity
CS(=O)(=O)c1ccc(Oc2cccc(Br)c2)nc1 [2-(3-bromophenoxy)-5-(methylsulfonyl)pyridine]	exhibiting antiviral activity
CC(C)(C)c1ccc(Oc2ccc(S(C)(=O)=O)cn2)cc1 [2-(4-(1,1-dimethylethyl)phenoxy)-5-(methylsulfonyl)pyridine]	exhibiting antiviral activity
CSc1ccc(Oc2ccc(S(C)(=O)=O)cn2)cc1 [2-(4-(methylthio)phenoxy)-5-(methylsulfonyl)pyridine]	exhibiting antiviral activity
CC(C)S(=O)(=O)c1ccc(Oc2ccc(Br)cc2)nc1 [2-(4-bromophenoxy)-5-((1-methylethyl)sulfonyl)pyridine]	exhibiting antiviral activity
O=S(=O)(Cc1ccccc1)c1ccc(Oc2ccc(Br)cc2)nc1 [2-(4-bromophenoxy)-5-((phenylmethyl)sulfonyl)pyridine]	exhibiting antiviral activity
O=S(=O)(c1ccc(Oc2ccc(Br)cc2)nc1)C1CCCCC1 [2-(4-bromophenoxy)-5-(cyclohexylsulfonyl)pyridine]	exhibiting antiviral activity
CS(=O)(=O)c1ccc(Oc2ccc(Br)cc2)nc1 [2-(4-bromophenoxy)-5-(methylsulfonyl)pyridine]	exhibiting antiviral activity
O=S(=O)(c1ccccc1)c1ccc(Oc2ccc(Br)cc2)nc1 [2-(4-bromophenoxy)-5-(phenylsulfonyl)pyridine]	exhibiting antiviral activity
CCS(=O)(=O)c1ccc(Oc2ccc(Cl)cc2)nc1 [2-(4-chlorophenoxy)-5-(ethylsulfonyl)pyridine]	exhibiting antiviral activity
CS(=O)(=O)c1ccc(Oc2ccc(Cl)cc2)nc1 [2-(4-chlorophenoxy)-5-(methylsulfonyl)pyridine]	exhibiting antiviral activity
CS(=O)(=O)c1ccc(Oc2cccc(C#N)c2)nc1 [3-((5-(methylsulfonyl)-2-pyridinyl)oxy)benzonitrile]	exhibiting antiviral activity
CS(=O)(=O)c1ccc(Oc2ccc(C#N)cc2)nc1 [4-((5-(methylsulfonyl)-2-pyridinyl)oxy)benzonitrile]	exhibiting antiviral activity
CCS(=O)(=O)c1ccc(Oc2cc(Cl)c(Cl)cc2Cl)nc1 [5-(ethylsulfonyl)-2-(2,4,5-trichlorophenoxy)pyridine]	exhibiting antiviral activity
CCS(=O)(=O)c1ccc(Oc2ccc(Oc3ccccc3)cc2)nc1 [5-(ethylsulfonyl)-2-(4-phenoxyphenoxy)pyridine]	exhibiting antiviral activity
CS(=O)(=O)c1ccc(Oc2ccc(Oc3ccccc3)cc2)nc1 [5-(methylsulfonyl)-2-(4-phenoxyphenoxy)pyridine]	exhibiting antiviral activity
CS(=O)(=O)c1cccnc1Oc1ccc(C(=O)c2ccccc2)cc1 [(4-((3-(methylsulfonyl)-2-pyridinyl)oxy)phenyl)phenylmethanone]	exhibiting antiviral activity
CC(C)S(=O)(=O)c1ccc(Oc2ccc(C(=O)c3ccccc3)cc2)nc1 [(4-((5-((1-methylethyl)sulfonyl)-2-pyridinyl)oxy)phenyl)phenylmethanone]	exhibiting antiviral activity
O=C(c1ccccc1)c1ccc(Oc2ccc(S(=O)(=O)C3CCCCC3)cn2)cc1 [(4-((5-(cyclohexylsulfonyl)-2-pyridinyl)oxy)phenyl)phenylmethanone]	exhibiting antiviral activity
CCS(=O)(=O)c1ccc(Oc2ccc(C(=O)c3ccccc3)cc2)nc1 [(4-((5-(ethylsulfonyl)-2-pyidinyl)oxy)phenyl)phenylmethanone]	exhibiting antiviral activity
CS(=O)(=O)c1ccc(Oc2ccc(C(=O)c3ccccc3)cc2)nc1 [(4-((5-(methylsulfonyl)-2-pyridinyl)oxy)phenyl)phenylmethanone]	exhibiting antiviral activity
CCCCCCS(=O)(=O)c1ccc(Oc2ccc(C(=O)c3ccccc3)cc2)nc1 [(4-((5-(n-hexylsulfonyl)-2-pyridinyl)oxy)phenyl)phenylmethanone]	exhibiting antiviral activity
